According to ChEMBL document CHEMBL1255326, “erm(B)-carrying elements in tetracycline-resistant pneumococci and correspondence between Tn1545 and Tn6003” (2008):
Active and inactive are the calls of the source. The calls are words filed in the database; no cut-off is given here.

Key:
Streptococcus pneumoniae [1] = experiment: Antibacterial activity against tnpR/tnpA positive tetracycline resistant Streptococcus pneumoniae clinical isolate expressing Tn3872 carrying erm(B) and tet(M) gene at 1000 ug by disk diffusion method; type: functional, organism-based
Streptococcus pneumoniae [2] = experiment: Antibacterial activity against aphA-3 positive tetracycline resistant Streptococcus pneumoniae clinical isolate expressing Tn6003 carrying erm(B)and tet(M) gene at 1000 ug by disk diffusion method; type: functional, organism-based
Streptococcus pneumoniae [3] = experiment: Antibacterial activity against tetracycline resistant Streptococcus pneumoniae clinical isolate expressing Tn6002 carrying erm(B) and tet(M) gene at 1000 ug by disk diffusion method; type: functional, organism-based
Streptococcus pneumoniae [4] = experiment: Antibacterial activity against tetracycline resistant Streptococcus pneumoniae clinical isolate expressing erm(B) and tet(M) gene by agar dilution CLSI method; type: functional

| SMILES | Activity (Streptococcus pneumoniae [1]) | Activity (Streptococcus pneumoniae [2]) | Activity (Streptococcus pneumoniae [3]) | MIC (Streptococcus pneumoniae [4]) [µg/mL] |
| --- | --- | --- | --- | --- |
| NC[C@H]1O[C@H](O[C@H]2[C@H](O)[C@@H](O[C@H]3O[C@H](CO)[C@@H](O)[C@H](N)[C@H]3O)[C@H](N)C[C@@H]2N)[C@H](O)[C@@H](O)[C@@H]1O | Active | inactive | Active |  |
| CC[C@H]1OC(=O)[C@H](C)[C@@H](O[C@H]2C[C@@](C)(OC)[C@@H](O)[C@H](C)O2)[C@H](C)[C@@H](O[C@@H]2O[C@H](C)C[C@H](N(C)C)[C@H]2O)[C@](C)(O)C[C@@H](C)C(=O)[C@H](C)[C@@H](O)[C@]1(C)O [ERYTHROMYCIN] |  |  |  | > 128 |
| CN(C)[C@@H]1C(O)=C(C(N)=O)C(=O)[C@@]2(O)C(O)=C3C(=O)c4c(O)cccc4[C@@](C)(O)[C@H]3C[C@@H]12 [TETRACYCLINE] |  |  |  | > 32 |
